One experiment relates to interleukin 6 (IL-6). Nature of the experiment: Interleukin 6 (IL-6) induction in human whole blood. The note with it: 37° C., 20 h, AlphaLISA. It is filed as cell-based. Here is the method: This example describes a method for assaying interleukin 6 induction by compounds disclosed in this specification.
Compounds diluted in DMSO were transferred to individual wells of a Matrix Technologies clear, V-bottom 384-well plate using ECHO acoustic liquid handling technology (25 nL per well). Human whole-blood samples (25 uL) were added to each well using a CyBio FeliX liquid handling instrument. The plate was shaken on a plate shaker for three min before the reaction mixtures at 37° C. for 20 h. Basel RPMI 1640 medium (supplemented with L-glutamine) was then added to each well (25 uL per well) prior to liberating plasma from each sample by centrifugation (450×g, 5 min, ambient temperature). Treated plasma samples (3 uL) were subsequently transferred to individual wells of a white, shallow, 384-well ProxiPlate (Perkin Elmer) using the FeliX liquid handling instrument and their interleukin 6 levels were measured using AlphaLISA technology as described by the manufacturer, PerkinElmer. Data analyses software was used to determine compound EC50 values where the baseline was established using average DMSO values and 100% induction established using reference compound values at the highest concentration tested. EC50's can be determined with software such as Graphpad Prism™.
On the technique in general: In Alpha technology, singlet oxygen from a donor bead excites a nearby acceptor bead.

The target in another experiment is T1, human TLR7 (Homo sapiens, UniProt Q9NYK1).
T1 construct: host or cells: HEK-Blue TLR7 cells (engineered human embryonic kidney cells)
T1 sequence (Q9NYK1 27-1049): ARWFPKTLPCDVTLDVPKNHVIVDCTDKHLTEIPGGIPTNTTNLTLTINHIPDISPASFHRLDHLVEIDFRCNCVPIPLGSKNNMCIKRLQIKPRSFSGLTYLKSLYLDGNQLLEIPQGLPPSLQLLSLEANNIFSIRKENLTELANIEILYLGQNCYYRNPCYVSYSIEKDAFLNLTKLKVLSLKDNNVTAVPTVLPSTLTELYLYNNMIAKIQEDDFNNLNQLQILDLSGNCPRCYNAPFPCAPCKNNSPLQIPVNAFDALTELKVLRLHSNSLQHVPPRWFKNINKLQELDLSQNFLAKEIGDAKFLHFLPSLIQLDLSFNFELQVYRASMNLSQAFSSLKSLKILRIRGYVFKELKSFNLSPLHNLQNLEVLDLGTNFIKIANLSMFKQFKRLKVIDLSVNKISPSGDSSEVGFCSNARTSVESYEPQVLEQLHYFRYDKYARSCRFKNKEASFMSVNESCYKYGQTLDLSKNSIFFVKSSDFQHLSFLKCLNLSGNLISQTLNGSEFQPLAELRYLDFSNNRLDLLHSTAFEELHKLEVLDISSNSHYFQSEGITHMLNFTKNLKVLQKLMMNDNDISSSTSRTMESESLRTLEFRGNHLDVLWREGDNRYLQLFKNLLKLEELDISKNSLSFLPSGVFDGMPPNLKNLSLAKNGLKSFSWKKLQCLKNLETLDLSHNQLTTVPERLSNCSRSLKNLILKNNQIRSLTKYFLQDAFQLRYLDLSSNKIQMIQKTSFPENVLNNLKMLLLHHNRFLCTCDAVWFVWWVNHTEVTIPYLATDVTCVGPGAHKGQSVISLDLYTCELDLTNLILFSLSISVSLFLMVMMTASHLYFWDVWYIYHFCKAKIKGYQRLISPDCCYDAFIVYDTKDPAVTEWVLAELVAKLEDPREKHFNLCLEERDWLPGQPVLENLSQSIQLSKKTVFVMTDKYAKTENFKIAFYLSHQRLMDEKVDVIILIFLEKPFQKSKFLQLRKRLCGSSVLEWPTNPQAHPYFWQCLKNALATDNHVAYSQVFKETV
Nature of the experiment: HEK-Blue TLR7 reporter assay (TLR7 agonism). The format is cell-based. The note with it: HEK-Blue TLR7 cells, human TLR7-SEAP reporter, 18 h treatment. How it is done:
This example describes a method for assaying TLR7 agonist activity of the compounds disclosed in this specification.
HEK-Blue™ TLR7 cells were added to each well of a 384-well tissue-culture plate (15,000 cells per well) and incubated 16-18 h at 37° C., 5% CO2. Compounds (100 nl) were dispensed into wells containing the HEK-Blue™ TLR cells and the treated cells were incubated at 37° C., 5% CO2. After 18 h treatment ten microliters of freshly-prepared Quanti-Blue™ reagent (Invivogen) was added to each well, incubated for 30 min (37° C., 5% CO2) and SEAP levels measured using an Envision plate reader (OD=620 nm).

For the next experiment, the system named is IFN-α. To be noted: fold less potent than the corresponding purine-8-one compound; cited from earlier work.

The term EC50 denotes the concentration needed to bring the measured effect to its halfway point. A high value points to weaker potency.

Molecules are shown by their SMILES.

`CCCCOc1nc(N)c2nc(O)n(Cc3ccc4c(c3)nnn4CCNC3COC3)c2n1` [Ia-06]: the EC50 came out at 56.2 nM in the experiment on interleukin 6 (IL-6) and 11 nM at human TLR7.
The compound `CCCCOc1nc(N)c2nc(O)n(Cc3ccc4c(c3)nnn4CCNC3CN(C(=O)OC(C)(C)C)C3)c2n1` [Ia-08] yielded an EC50 at human TLR7 of 113 nM. In other words, the sub-micromolar range.
For the compound `CCCCOc1nc(N)c2nc(O)n(Cc3ccc4c(c3)nnn4CCNC3CCC3)c2n1` [Ia-05], the EC50 was determined as 22.5 nM with interleukin 6 (IL-6) and 0.9 nM at human TLR7.
Regarding `CCCCOc1nc(N)c2nc(O)n(Cc3ccc4c(c3)nnn4CCNCC3COC3)c2n1` [Ia-07], the EC50 worked out at 19.7 nM with interleukin 6 (IL-6) and 2.4 nM on human TLR7.
With `CCCCOc1nc(N)c2nc(O)n(Cc3ccc4c(c3)nnn4CCCl)c2n1` [Ia-02], the EC50 amounted to 53 nM in the experiment on interleukin 6 (IL-6) and 26 nM on human TLR7.
Regarding `CCCCOc1nc(N)c2nc(O)n(Cc3ccc4c(c3)nnn4CCNCc3ccccc3)c2n1` [Ia-09], the results for the EC50 in the experiment with interleukin 6 (IL-6) and at human TLR7 were 44 nM and 24 nM, respectively.
In the case of `CCCCOc1nc(N)c2c(n1)N(Cc1cccc(CN3CCCC3)c1)CC(=O)N2` [Vesatolimod, vesatolimod], the “potency less than that of the corresponding purine-8-one compound, as measured by IFN-α induction” value in the experiment with IFN-α was 100 ×.
Consider `CCCCOc1nc(N)c2nc(O)n(Cc3ccc4c(c3)nnn4CCNC3CC3)c2n1` [Ia-04], for which the EC50 in the experiment with interleukin 6 (IL-6) was found to be 15.3 nM; on human TLR7 it was 4 nM.
Consider `CCCCNCCn1nnc2cc(Cn3c(O)nc4c(N)nc(OCCCC)nc43)ccc21` [Ia-03], for which the EC50 with interleukin 6 (IL-6) came out at 16.8 nM; at human TLR7, 2.3 nM.
For `CCCCOc1nc(N)c2nc(O)n(Cc3ccc4c(c3)nnn4CCO)c2n1` [Ia-01], the EC50 in the experiment with interleukin 6 (IL-6) was determined as 37 nM; on human TLR7 it was 5.4 nM.
As to `CCCCOc1nc(N)c2nc(O)n(Cc3ccc4c(c3)nnn4CCNCc3ccncc3)c2n1` [Ia-10], the EC50 was 18.2 nM with interleukin 6 (IL-6) and 7.2 nM at human TLR7.

The record behind these values is US10941145B2, “Toll-like receptor 7 (TLR7) agonists having a benzotriazole moiety, conjugates thereof, and methods and uses therefor” (BRISTOL-MYERS SQUIBB COMPANY, priority 2017, dated 2021).
